Laboratory results: patent publication US7776873B2, “Method for treating damage to gastric mucosa” (Yuhan Corporation, priority 2005, dated 2010)

Assays:
[1] = system: ethanol-induced gastric mucosal lesions; experiment: Preventive effect on in vivo ethanol-induced gastric injury; set-up: species or system Sprague-Dawley male rats; settings: rats, 10 mg/kg via oro-gastric tube prior to absolute ethanol 6 ml/kg for 1 hr, FIG. 3B
Source text: Six-week old specific-pathogen-free (SPF) Sprague-Dawley male rats (Charles River, Tokyo, Japan) were used for experiments. The rats were fed a sterilized commercial pellet diet (Biogenomics Co., Seoul, Korea), given sterile water ad libitum, and housed in air-conditioned biohazard room with a 12-h light:12-h dark cycle. The rats were divided into four groups; indomethacin-only treatment group, revaprazan-indomethacin treatment group, ethanol-only treatment group and revaprazan-ethanol treatment group. The rats were food-deprived 24 hours, and then administered with 10 mg/kg revaprazan suspended in 0.5% CMC (carboxymethylcellulose) via oro-gastric tube prior to exposure to either indomethacin (40 mg/kg for 12 hrs) or absolute ethanol (6 ml/kg for 1 hr). The stomachs of the rats belonging to the groups treated with indomethacin were excised and the degree of gastric mucosal lesions was observed (see FIG. 3A). Referring to FIG. 3A, in the indomethacin-only treatment group, increased hemorrhagic lesions in gastric mucosa were observed visually. […] Also, the stomachs of the rats belonging to the ethanol treatment groups were excised and the degree of gastric mucosal lesions was observed (see FIG. 3B).

[2] = system: indomethacin-induced gastric mucosal lesions; experiment: Treatment effect on NSAID-induced gastropathy; format: in vivo, Sprague Dawley male rats; settings: rats, 5 mg/kg and 10 mg/kg given 8 hours after indomethacin 40 mg/kg, for one hour, FIG. 9
Procedure: Six-week old specific-pathogen-free (SPF) Sprague Dawley male rats (Charles River, Tokyo, Japan) were used for experiments. The rats were fed a sterilized commercial pellet diet (Biogenomics Co., Seoul, Korea), given sterile water ad libitum, and housed in air-conditioned biohazard room with a 12-h light:12-h dark cycle. The rats were food-deprived 24 hours, and then treated with 1 ml of a solution of indomethacin (40 mg/kg) in 0.5% CMC (carboxymethylcellulose) via oro-gastric tube. 8 hours after the indomethacin treatment, the rats were treated with 1 ml of a solution of revaprazan (5 mg/kg and 10 mg/kg) in 0.5% CMC for one hour, and the degree of gastropathy was determined in the same manner as in Example 8.

[3] = system: ERK (extracellular signal-regulated kinase); experiment: H. pylori-induced ERK activation (Western blot for p-ERK); format: cell-based, human; settings: AGS cells, 5 and 25 uM for 16 hours, then H. pylori 30 minutes, FIG. 4
Procedure: H. pylori-induced cytotoxicity activates MAPK (Mitogen-Activated Protein Kinase), thereby resulting in apoptosis. Therefore, H. pylori infection leads to an increase in phosphorylation of ERK among three major subfamilies of MAPKs.
The human gastric epithelial (AGS, KCLB 21739) cells were seeded in culture dishes at 2×10^6 cells/100 mm^2 and cultured in RPMI 1640 (Gibco BRL, Grand Island, N.Y., U.S.A.), supplemented with 100 units/mL penicillin, 100 ug/mL streptomycin, and 10% FBS (Fetal Bovine Serum). Revaprazan, dissolved in sterilized water, were added to AGS cells to reach final concentrations of 5 and 25 uM and the cells were incubated at 37° C. for 16 hours. RPMI 1640 media was removed and then the cells washed three times with PBS (137 mM NaCl, 2.7 mM KCl, 10 mM Na2HPO4, and 2 mM KH2PO4). For inoculation, H. pylori (ATCC 43504) cultures were resuspended in PBS and cocultured with AGS cells at a final concentration of 5×10^8 CFU/ml. After 30 minutes of incubation at 37° C., the cells were resuspended in lysis buffer (20 mM Tris-Cl (pH 7.5), 150 mM NaCl, 1% Triton X-100, 1 mM EDTA, and protease inhibitor cocktail (Roche, Mannheim, Germany)). The suspension was sonicated for approximately 10 seconds, four times using the BIORUPTOR (Cosmo Bio, Koto-ku, Tokyo), and centrifuged at 4° C., 12000 rpm for 30 minutes. […]

SMILES: Cc1nc(Nc2ccc(F)cc2)nc(N2CCc3ccccc3C2C)c1C (stereo not shown) [revaprazan, 5,6-dimethyl-2-(4-fluorophenylamino)-4-(1-methyl-1,2,3,4-tetrahydroisoquinolin-2-yl)pyrimidine]
- ethanol-induced gastric injury [1]: completely inhibited
- gastric mucosal hemorrhagic lesions after treatment [2]: remarkably improved
- number of erosions and ulcers [2]: reduced
- effect on ERK activation (p-ERK) [3]: significant, concentration-dependent inhibitory effect
